The values below come from patent publication US8883227B2, “Plant pathogen inhibitor combinations and methods of use” (priority 2009, dated 2014).

Common to all, as to type: in vivo
The test system of one assay is Bremia lactucae. Put plainly: Lettuce downy mildew test on cotyledons. As for the experimental part:
Synergy between MBI-106 and acibenzolar-S-methyl or mefenoxam which control a specific class of pathogens Oomycetes was tested with lettuce downy mildew following Su et al. (2004).
To prepare inoculum of downy mildew, lettuce seeds were placed on […] petri-dishes with about 20-30 seeds in each and watered with sterile water, then supplied with ½ strength of Hoagland's solution after germination. The petri dishes were placed at 20° C. growth chamber for 7-10 days. The spores of Bremia lactucae was inoculated on lettuce cotyledons and cultured for 7-10 days at 15° C. for sporulation to occur. Cotyledons with sporulation were cut off and placed in a falcon tube with sterile water. The cotyledons were vortexed for 15 seconds three times and filtered through a 100-uμm mesh to collect sporangia. The solution was adjusted to 0.5 to 1.0×10^5 spores/ml for inoculation.
Four test plants were seeded in each 2-in pots and then placed at 20° C. for 7-10 days to grow cotyledons. Plants were ready for test when the first true leaf was emerging.
The lettuce plants were treated with the materials and left to dry or overnight. Then the plants were inoculated with sporangial solution. The treatments were arranged in a randomized complete block design with four replicates. The inoculated plants were placed in darkness in growth chamber for 48 hours and then incubated under 12-h light period at 15° C. Eight to ten days after inoculation, the cotyledons were rated for disease severity (percentage area covered with sporangiophores).

The test system of a further assay is Sphaerotheca fuliginea. The assay is described as follows: Greenhouse cucumber powdery mildew test, foliar spray alone or in tank mix. The procedure:
The studies were conducted in a green house. Experimental design of the studies for synergism followed the Burpee and Latin (2008). Powdery mildew, caused by Sphaerotheca fuliginea, was used for investigating the efficacy of the treatments.
Cucumber seeds cv. “SMR 58” (Irwin & Sons Ag Supply, Inc. Cheshire, Oreg.) were grown in plastic 4-inch pots with potting soil mix (Rod McLellan Company, Marysville, Ohio). The plants were treated at 2-true leaf stage. The compounds at various rates were sprayed with a 2-oz mist sprayer at 2 ml per plant at upper side and 1 ml at lower side of the leaves. The treated plants were left for 3-4 hours under florescent light to dry before inoculation.
A conidia suspension of Sphaerotheca fuliginea, the causal agent of powdery mildew disease on cucumber, was prepared by cutting diseases leaves of the cucumber plants that are served for conservation of inoculum. The suspension were adjusted to 2.0×10^5 conidia per ml and applied with a 2-oz mist sprayer at 2 ml per plant on the upper side of the leaves. The inoculated plants were placed in a greenhouse and the treatments were arranged in randomized complete blocks with 4 to 6 replicates at 25° C. to 30° C.
The disease severity (percentage area covered with colonies) of the first leaves were rated according to James (1971). Disease severity and percentage control were analyzed with analysis of variance (ANOVA) and means of the treatments were compared with Fisher's Protected Least Difference (LSD) at p=0.05 level. Synergetic effect was calculated and analyzed with Limpel's formula (Limpel et al., 1962; Richer, 1987).

Another assay deals with Rhizoctonia solani. The assay is described as follows: Soybean seed treatment (seed coating) in infested soil, damping off. The settings on record: inoculated. The procedure:
The experiments described below were conducted with soybean but similar procedures are used with other crops such as cereals, corn, cotton, and potatoes.
The experiments were conducted in a greenhouse following the procedure developed by Hwang et al. (2006). The isolate of Rhizoctonia solani was grown on potato dextrose agar plates and cultured for 5 days for inoculating oat or wheat grain. One liter of grain was soaked overnight at room temperature (25° C.) and rinsed three times with tape water. The 8×12-in autoclave bags were filled with the grain up to ⅓ full were autoclaved at 121° C. for 15 min. The autoclaved grain then was then inoculated with 5 pieces of 1×1 cm plug of the 5-day culture of R. solani per bag and cultured for 5 days at room temperature (25° C.). The bags were left open in laminar flow hood to let the grain completely dry.
The blank seed sample of 10 g to be coated was placed in a flask. Coating agent SEPIRET® 1171-O (Becker Underwood Ltd., Ames, Iowa) was put into the flasks together with the compound of interest, and the flask was shaken vigorously so that the seed picked up the compound. The procedure was repeated with fresh seed sample of cvs. “White Lion” (Kitazawa Seed Co., Oakland, Calif.) or “Viking 2265” (Johnny's Selected Seeds, Winslow, Me.) in the same flask for the treatments. After the seeds were coated, they were left to air dry before planting.
To prepare the soil, five hundred milliliters of the dried grains with inoculum were blended for 15 seconds three times and the powder was mixed with sterile sand at 1:1 (v/v) to dilute the inoculum. The sand mix was further used to prepare soil mix at various proportions 1:350 to 1:800 (inoculum:soil) for soybean to generate various disease levels in repeated tests.
The coated seeds were planted in the pots with infested soil. There were three replicates of each treatment which were arranged in a complete randomized block design and placed at 25 to 30° C. in a greenhouse.
After 10 to 20 days, depending on disease pressure and temperature, emergence of each treatment was rated and compared. Biomass was measured by weighing the above-ground portion which was measured for each replicate of the plant material.

Where [1] appears, read: Example VI, acibenzolar-S-methyl 25 ug/ml alone.
Setting [2] is: Example IV, azoxystrobin 0.25 ug/ml alone.
[3] abbreviates: Example IV, azoxystrobin 0.5 ug/ml alone.
Setting [4] is: Example IV, azoxystrobin 1.0 ug/ml alone.
The mark [5] stands for this setting: Example IV, azoxystrobin 5.0 ug/ml alone.
Where [6] appears, read: Example IV, azoxystrobin 10.0 ug/ml alone.
Where [7] appears, read: Example XI (Test II), azoxystrobin 0.1 ug/ml alone.
Where [8] appears, read: Example XI (Test II), azoxystrobin 0.25 ug/ml alone.
The mark [9] stands for this setting: Example XI (Test II), azoxystrobin 0.5 ug/ml alone.
The mark [10] stands for this setting: Example VIII, azoxystrobin 0.0298 g/kg alone.
The mark [11] stands for this setting: Example IX, fludioxonil 0.0596 g ai/kg alone.
Where [12] appears, read: Example VII, mefenoxam 37.5 ug/ml alone.
[13] abbreviates: Example VII, mefenoxam 75 ug/ml alone.
Setting [14] is: Example VII, mefenoxam 150 ug/ml alone.
[15] abbreviates: Example I, myclobutanil 0.05 ug/ml alone.
[16] abbreviates: Example I, myclobutanil 0.1 ug/ml alone.
Setting [17] is: Example I, myclobutanil 0.25 ug/ml alone.
Where [18] appears, read: Example II (repeated test), myclobutanil 0.05 ug/ml alone.
[19] abbreviates: Example II (repeated test), myclobutanil 0.1 ug/ml alone.
Where [20] appears, read: Example II (repeated test), myclobutanil 0.25 ug/ml alone.
[21] abbreviates: Example X, propiconazole 1.0 ug/ml alone.
The mark [22] stands for this setting: Example III, quinoxyfen 0.01 ug/ml alone.
Where [23] appears, read: Example III, quinoxyfen 0.05 ug/ml alone.
[24] abbreviates: Example V, triflumizole 0.25 ug/ml alone.
Setting [25] is: Example V, triflumizole 0.5 ug/ml alone.
The mark [26] stands for this setting: Example V, triflumizole 1.0 ug/ml alone.

In the case of `CSC(=O)c1cccc2nnsc12` [acibenzolar-S-methyl], in the assay on Bremia lactucae (setting [1]), the “Control (%)” value is on record as 23.4% and the “Severity (%)” value amounted to 68.9%.
Take `CO/C=C(/C(=O)OC)c1ccccc1Oc1cc(Oc2ccccc2C#N)ncn1` [azoxystrobin]: the “Control (%)” value in the assay with Sphaerotheca fuliginea (setting [2]) is 51.8%; in the assay with Sphaerotheca fuliginea (setting [3]), 48.0%; with Sphaerotheca fuliginea (setting [4]), 68.1%; with Sphaerotheca fuliginea (setting [5]), 94.3%; in the assay with Sphaerotheca fuliginea (setting [6]), 87.6%; in the assay on Sphaerotheca fuliginea (setting [7]) it was 21.6%. The “Control (%)” value in the assay with Sphaerotheca fuliginea (setting [8]) is 13.5%; in the assay with Sphaerotheca fuliginea (setting [9]), 62.2%; in the assay on Rhizoctonia solani (setting [10]), 81.5%. In addition, the “Severity (%)” value in the assay with Sphaerotheca fuliginea (setting [2]) was determined as 45.0%; in the assay on Sphaerotheca fuliginea (setting [3]) it was 48.8%; in the assay on Sphaerotheca fuliginea (setting [4]), 30.0%; in the assay with Sphaerotheca fuliginea (setting [5]), 5.3%; in the assay with Sphaerotheca fuliginea (setting [6]), 11.3%; in the assay on Sphaerotheca fuliginea (setting [7]), 72.5%. Further, the Severity (%) with Sphaerotheca fuliginea (setting [8]) was found to be 80.0%; with Sphaerotheca fuliginea (setting [9]), 35.0%. Also, the “Emergence (%)” value with Rhizoctonia solani (setting [10]) is reported as 86.4%.
`N#Cc1c[nH]cc1-c1cccc2c1OC(F)(F)O2` [fludioxonil]: in the assay with Rhizoctonia solani (setting [11]), the “Bio mass” value turned out to be 8.7 g, the “Control (%)” value was 28.4% and the “Emergence (%)” value was 35.8%.
In the case of `COCC(=O)N(c1c(C)cccc1C)[C@H](C)C(=O)OC` [mefenoxam], the entries for the “Control (%)” value with Bremia lactucae (setting [12]), in the assay with Bremia lactucae (setting [13]) and in the assay with Bremia lactucae (setting [14]) were −2.6%, 37.7% and 48.5%, respectively. In addition, the “Severity (%)” value stood at 89.3% in the assay on Bremia lactucae (setting [12]), 54.2% with Bremia lactucae (setting [13]) and 44.8% in the assay with Bremia lactucae (setting [14]).
Take `CCCCC(C#N)(Cn1cncn1)c1ccc(Cl)cc1` (centres unmarked) [myclobutanil]: the “Control (%)” value in the assay with Sphaerotheca fuliginea (setting [15]) is given as 2.5%; in the assay on Sphaerotheca fuliginea (setting [16]) it was 3.2%; with Sphaerotheca fuliginea (setting [17]), 83.1%; in the assay on Sphaerotheca fuliginea (setting [18]), −2.8%; with Sphaerotheca fuliginea (setting [19]), 12.2%; with Sphaerotheca fuliginea (setting [20]) it was 41.3%. Also, the “Severity (%)” value is given as 95.8% in the assay on Sphaerotheca fuliginea (setting [15]); 95.0% in the assay with Sphaerotheca fuliginea (setting [16]); 16.7% in the assay on Sphaerotheca fuliginea (setting [17]); 93.8% in the assay with Sphaerotheca fuliginea (setting [18]); 80.0% in the assay on Sphaerotheca fuliginea (setting [19]); 53.8% with Sphaerotheca fuliginea (setting [20]).
Take `CCCC1COC(Cn2cncn2)(c2ccc(Cl)cc2Cl)O1` (centres unmarked) [propiconazole]: in the assay with Sphaerotheca fuliginea (setting [21]), the “Control (%)” value is 1.3% and the “Severity (%)” value is listed as 97.5%.
Regarding `Fc1ccc(Oc2ccnc3cc(Cl)cc(Cl)c23)cc1` [quinoxyfen, 5,7-dichloro-4-quinolyl 4-fluorophenyl ether], in the assay with Sphaerotheca fuliginea (setting [22]), the “Control (%)” value came to 1.33% and the “Severity (%)” value came out at 90.0%. In addition, in the assay on Sphaerotheca fuliginea (setting [23]), the “Control (%)” value is listed as 66.95% and the “Severity (%)” value is given as 30.0%.
In the case of `CCCOC/C(=N\c1ccc(Cl)cc1C(F)(F)F)n1ccnc1` [triflumizole], the “Control (%)” value in the assay on Sphaerotheca fuliginea (setting [24]) was found to be 2.6%; with Sphaerotheca fuliginea (setting [25]) it was 11.5%; with Sphaerotheca fuliginea (setting [26]) it was 20.5%. The “Severity (%)” value was determined as 95.0% in the assay with Sphaerotheca fuliginea (setting [24]), 86.3% with Sphaerotheca fuliginea (setting [25]) and 77.5% with Sphaerotheca fuliginea (setting [26]).
